Measurements from PMC7247319, “The mitochondria-targeted peptide SS-31 binds lipid bilayers and modulates surface electrostatics as a key component of its mechanism of action” (The Journal of Biological Chemistry, 2020).
Where a SMILES comes first, the peptide text is derived from it. [ ]: non-standard residue; d: D form. Dmt = Cc1cc(O)cc(C)c1C[C@H](N)C(=O)O

What was measured:
Test in all cases: SS-31 binding isotherms by endogenous 2′,6′-Dmt fluorescence (peptide and lipid titrations)
[1] = test system: LUVs containing 20 mol % POPG in a POPC background; conditions: 20% POPG/POPC LUVs, 20 mM HEPES-KOH pH 7.5, Scatchard and Langmuir fits of fluorescence isotherms
Description: (§1) The interaction of basic amphipathic peptides with negatively charged membranes depends on the electric field originating from the bilayer surface as well as specific electrostatic and hydrophobic interactions between the peptide and lipids (Fig. S2). The first objective of this study was to quantitatively evaluate the binding of SS-31 to model membranes with specific lipid composition. For spectroscopic analysis of SS-31 binding, we made use of the endogenous spectral properties of the 2′,6′-dimethyltyrosine (2′,6′-Dmt) side chain at the second position in the peptide. Our initial spectral characterization of SS-31 confirmed the feasibility of using endogenous peptide fluorescence to quantify peptide-membrane interactions (supporting Results A and B and Figs. S3 and S4). We therefore proceeded to measure the binding of SS-31 to large unilamellar vesicles (LUVs) containing anionic lipids in a host background of the zwitterionic lipid 1-palmitoyl-2-oleoyl-sn-glycero-3-phosphocholine (POPC, 16:0/18:1 PC). The anionic lipids included 1′,3′-bis[1,2-dioleoyl-sn-glycero-3-phospho]-glycerol (tetraoleoylcardiolipin (TOCL), all acyl chains 18:1), monolysocardiolipin (MLCL, all acyl chains 18:1), or 1-palmitoyl-2-oleoyl-sn-glycero-3-phosphoglycerol (POPG, 16:0/18:1 PG). Binding measurements were performed using two complementary approaches: (i) titration of fixed concentrations of LUVs with peptide and (ii) titration of fixed concentrations of peptide with LUVs (supporting Results C and Fig. S5). […]
(§2) Figure 2. […] A–C, fluorescence-based measurements. […] Statistical differences within each data set were determined relative to TOCL-containing membranes: •, p < 0.05; ••, p < 0.01.
(§3) To obtain equilibrium binding parameters n (the number of lipid molecules per peptide bound) and KD (the dissociation constant), we analyzed binding isotherm data by Scatchard analysis (Fig. 2C) and by fits of the data to Langmuir adsorption models (Equations S2 and S3 for peptide and lipid titrations, respectively). […]

[2] = test system: LUVs containing 20 mol % TOCL in a POPC background; conditions: 20% TOCL/POPC LUVs, 20 mM HEPES-KOH pH 7.5, Scatchard and Langmuir fits of fluorescence isotherms
Description: as §1, §2, §3

[3] = test system: LUVs containing 20 mol % MLCL in a POPC background; conditions: 20% MLCL/POPC LUVs, 20 mM HEPES-KOH pH 7.5, Scatchard and Langmuir fits of fluorescence isotherms
Description: as §1, §2, §3

## Cc1cc(O)cc(C)c1C[C@H](NC(=O)[C@H](N)CCCNC(=N)N)C(=O)N[C@@H](CCCCN)C(=O)N[C@@H](Cc1ccccc1)C(N)=O [SS-31, D-Arg-2′6′-dimethyl-Tyr-Lys-Phe-NH2] (H-[dR][Dmt]KF-NH2)
[1]
  n (number of lipid molecules per peptide bound), average lipid/peptide stoichiometry: 15.4
[2]
  n (number of lipid molecules per peptide bound), average lipid/peptide stoichiometry: 6.9
[3]
  n (number of lipid molecules per peptide bound), average lipid/peptide stoichiometry: 7.4
